The source made the active and inactive calls. The rule behind the calls is not given here.
Legend:
[1] = target: Cellular tumor antigen p53 (Homo sapiens) (UniProt P04637); assay: Induction of p53-dependent growth suppression of human LNZTA3 cells after 72 hrs by MTT assay; format: cell-based
LNZTA3 [2] = assay: (§1) Cytotoxicity against p53-deficient human LNZTA3 cells assessed as growth inhibition after 72 hrs by MTT assay; format: functional, cell-based
[3] = target: Cellular tumor antigen p53 (Homo sapiens) (UniProt P04637); assay: Induction of wild type p53-dependent growth suppression of human MKN45 cells; format: cell-based; conditions: MKN-45
[4] = target: Cellular tumor antigen p53 (Homo sapiens) (UniProt P04637); assay: Induction of wild type p53-dependent growth suppression of human RKO cells; format: cell-based
[5] = target: Cellular tumor antigen p53 (Homo sapiens) (UniProt P04637); assay: Induction of wild type p53-dependent growth suppression of human HCT116 cells; format: cell-based; conditions: HCT-116
[6] = target: Cellular tumor antigen p53 (Homo sapiens) (UniProt P04637); assay: Induction of wild type p53-dependent growth suppression of human MCF7 cells; format: cell-based
[7] = tested on: Cellular tumor antigen p53 (Homo sapiens), P04637 [UNDEFINED MUTATION]; assay: Induction of p53 mutant-dependent growth suppression of human MKN7 cells; format: cell-based; conditions: MKN-7
[8] = tested on: Cellular tumor antigen p53 (Homo sapiens), P04637 [UNDEFINED MUTATION]; assay: Induction of p53 mutant-dependent growth suppression of human HCT15 cells; format: cell-based; conditions: HCT-15
[9] = tested on: Cellular tumor antigen p53 (Homo sapiens), P04637 [UNDEFINED MUTATION]; assay: Induction of p53 mutant-dependent growth suppression of human […] cells
[10] = as §1; format: functional, cell-based; conditions: LNZTA3, 72 h
LNZTA3 [11] = assay: Cytotoxicity against p53-deficient human LNZTA3 cells assessed as growth inhibition at >100 uM after 72 hrs by MTT assay; format: functional, cell-based

Chain of Cellular tumor antigen p53 (Homo sapiens) (P04637 whole entry, looked up): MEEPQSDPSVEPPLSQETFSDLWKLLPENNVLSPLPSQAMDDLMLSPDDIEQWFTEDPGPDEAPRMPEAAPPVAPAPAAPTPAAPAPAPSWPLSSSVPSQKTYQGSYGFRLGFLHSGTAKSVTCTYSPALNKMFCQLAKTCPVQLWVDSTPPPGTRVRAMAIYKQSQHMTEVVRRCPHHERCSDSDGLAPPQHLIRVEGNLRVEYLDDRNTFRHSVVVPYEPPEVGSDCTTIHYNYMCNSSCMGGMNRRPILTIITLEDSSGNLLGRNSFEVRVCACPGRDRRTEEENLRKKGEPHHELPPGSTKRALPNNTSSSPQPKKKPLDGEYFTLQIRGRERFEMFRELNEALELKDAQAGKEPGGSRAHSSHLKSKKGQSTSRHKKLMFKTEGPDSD
Chain of Cellular tumor antigen p53 (Homo sapiens), P04637 [UNDEFINED MUTATION] (P04637 whole entry, looked up, change not shown): as the sequence (P04637 whole entry, looked up) above

Structure (SMILES): CCCCC[C@H](O)c1c(O[C@@H]2O[C@@H]([C@H](O)CO)[C@H](O)[C@H]2O)cc2c(c1O)C(=O)c1c(O)cc(O)cc1C2=O
- Activity [1]: Active
- growth inhibition (GI) (LNZTA3 [2]): Active
- Activity [3]: Active
- Activity [4]: Active
- Activity [5]: Active
- Activity [6]: Active
- Activity [7]: Active
- Activity [8]: Active
- Activity [9]: Active

Structure (SMILES): O=C1c2cc(O[C@@H]3O[C@@H]([C@H](O)CO)[C@H](O)[C@H]3O)cc(O)c2C(=O)c2c1cc1c(c2O)[C@@H]2CCO[C@@H]2O1
- Activity [1]: Active
- growth inhibition (GI) (LNZTA3 [2]): Active
- Activity [3]: Active
- Activity [4]: Active
- Activity [5]: Active
- Activity [6]: Active
- Activity [7]: Active
- Activity [8]: Active
- Activity [9]: Active

Structure (SMILES): CCCCC[C@H](O[C@@H]1O[C@@H]([C@H](O)CO)[C@H](O)[C@H]1OC(C)=O)c1c(O)cc2c(c1O)C(=O)c1c(O)cc(O)cc1C2=O
- IC50 [10]: 32 µM
- Activity [3]: Active
- Activity [4]: Active
- Activity [5]: Active
- Activity [6]: Active
- Activity [7]: Active
- Activity [8]: Active
- Activity [9]: Active

Structure (SMILES): CC(=O)CCC[C@H](O[C@@H]1O[C@@H]([C@H](O)CO)[C@H](O)[C@H]1O)c1c(O)cc2c(c1O)C(=O)c1c(O)cc(O)cc1C2=O
- Activity [1]: Active
- growth inhibition (GI) (LNZTA3 [11]): inactive
- Activity [3]: Active
- Activity [4]: Active
- Activity [5]: Active
- Activity [6]: Active
- Activity [7]: Active
- Activity [8]: Active
- Activity [9]: Active

Structure (SMILES): CCCCC[C@H](O[C@@H]1O[C@@H]([C@H](O)CO)[C@H](O)[C@H]1O)c1c(O)cc2c(c1O)C(=O)c1c(O)cc(O)cc1C2=O
- IC50 [10]: 32 µM
- Activity [3]: Active
- Activity [4]: Active
- Activity [5]: Active
- Activity [6]: Active
- Activity [7]: Active
- Activity [8]: Active
- Activity [9]: Active

Structure (SMILES): CCCCC[C@H](O)c1c(O)cc2c(c1O)C(=O)c1c(O)cc(O)cc1C2=O
- Activity [1]: Active
